According to the NIST ThermoML archive (doi:10.1016/j.jct.2015.05.019):
Numbers after ± are expanded uncertainties.

Tests used:
[1] = Molar enthalpy of transition or fusion; conditions: Crystal; DSC
[2] = Crystal; DTA

Molar enthalpy of transition or fusion [1]: 15.7 ± 3.11 kcal/mol | Normal melting temperature [2]: 274.32 ± 0.5 °C
SMILES: O=c1c(-c2ccc(O)cc2)coc2cc(O[C@@H]3O[C@H](CO)[C@@H](O)[C@H](O)[C@H]3O)cc(O)c12 [genistin]
